Data on three compounds can be found in patent publication US20250290915A1, “METHOD FOR PREDICTING RESPONSIVENESS TO THERAPY” (CANCERTAIN LIMITED, priority 2022, published 2025).

Common to all, as to type: cell-based, human
The subject of experiment [1] is Circulating Tumour Cells (CTCs) from a patient with colon cancer. Nature of the experiment: Drug response score assay on CTCs from blood, Example 2. On the procedure: (§1) CD45^+ cells and circulating tumour cells (CTCs) were isolated from a blood sample provided by each subject.
(§2) CD45 separation was performed by adding human CD45 microbeads (50 μl/ml blood), incubating for 15 minutes at 4° C. and then processing using an AutoMACS machine. This separates the blood sample into CD45^+ and CD45^−cells in 2 separate falcons. The falcon tubes are then centrifuged at 1200 rpm for 5 minutes.
(§3) The supernatant was removed from the CD45^−falcon tube, and the CD45^−cells contacted with 100 μl of FcR block and 100 μl of CD326 (EpCAM) MicroBeads, followed by incubation at […] 4° C. for 30 minutes. The CD45^−cells were then processed using an AutoMACS machine to separate the EpCAM positive and negative cells into 2 separate falcon tubes. The EpCAM-cells were discarded. The supernatant was removed from the EpCAM^+ cells, and the cells resuspended in DMEM with 2 μl Cell Tox, 2 μl MT and 2 μl MT. 20 μl of the resuspended pellet was then added to all sample wells excluding a blank. After all wells are added to, a cell count was conducted on the […] to determine the number of circulating tumour cells (CTCs).
(§4) The different cell types were each divided equally into populations, depending on the number of drugs/concentrations to be tested and plated on a cell-culture plate pre-coated with a scaffold of polycaprolactone (PCL) electrospun fibres and incubated at 37° C., 5% CO2, for 5 to (typically 10) minutes to facilitate cell attachment. After attachment, an initial imaging step was carried out using the RealTime-Glo™ MT assay from Promega (Catalogue No. G9711)) and the CellTox™ Green Cytotoxicity Assay (Promega, Catalogue No. G8741), carried out according to manufacturer's instructions. Following this initial imagining, the immunotherapeutic and/or chemotherapeutic agents were added to the cell populations as indicated below. After 10 minutes, the imagining step was repeated. The cell populations were then incubated at 37° C., 5% CO2 for 48 hours. The imaging step was then repeated. The cell populations were then re-dosed with the same immunotherapeutic and/or chemotherapeutic agents as indicated below, and incubated at 37° C., 5% CO2 for a further 48 hours. After this second 48 hour incubation, the imagining step was repeated for a final time.
(§5) At the end of this culture period, dose response scores were calculated using a normalized drug response metric as described in Gupta et al. (Communications Biology volume 3, Article number: 42 (2020), https://doi.org/10.1038/s42003-020-0765-z). The start readout for a given immunotherapeutic or chemotherapeutic agent at a given concentration was the to readout for said immunotherapeutic or chemotherapeutic agent at a specified concentration. The end readout for a given immunotherapeutic or chemotherapeutic agent at a given concentration was the final timepoint reading (t96h) for said immunotherapeutic or chemotherapeutic agent at a specified concentration.
(§6) The positive control start readout for a given drug/concentration was the to readout for the corresponding drug at a specified concentration. The positive control end readout for the corresponding drug at a specified concentration was the final timepoint reading (t96h) for the corresponding blank well.
(§7) The negative control start and end readouts for a given immunotherapeutic or chemotherapeutic agent at a given concentration were the to and final timepoint reading (t96h) respectively for blank cell or blank immuno cell well respectively.
(§8) The sensitivity or resistance of a subject's cancer to a given immunotherapeutic or chemotherapeutic agent was determined based on the calculated drug response score as shown in Table 2.
Blood samples from a patient with colon cancer were received on 3 Mar. 2022 and tested using a 1 drug panel.

The subject of experiment [2] is Circulating Tumour Cells (CTCs) from a patient with renal cancer. The experiment can be described thus: Drug response score assay on CTCs (with CD45+ cells for immunotherapy) from blood, Example 7. Also on record: key to Drug response score, conc. 1 / Drug response score, conc. 2 / Drug response score, conc. 3 / Drug response score, conc. 4: normalized drug response metric per Gupta et al. 2020. On the procedure:
as §1, §2
(§9) The supernatant was removed from the CD45^+falcon tube, and the cells resuspended in DMEM with 2 μl Cell Tox, 2 μl MT and 2 μl MT. 20 μl of the resuspended CD45^+ cells was then plated in each well which will contain an immunotherapy treatment.
as §3, §4, §5, §6, §7
(§10) The sensitivity or resistance of a subject's cancer to a given immunotherapeutic or chemotherapeutic agent was determined based on the calculated drug response score as shown in Table 2. […]

Experiment [3] has as its system Circulating Tumour Cells (CTCs) from a patient with lung cancer (adenocarcinoma). The experiment can be described thus: Drug response score assay on CTCs (with CD45+ cells for immunotherapy) from blood, Example 5. Particulars: lung cancer CTCs; for Drug sensitivity as calculated by the assay (interpretation of Drug Response Scores): Table 17. On the procedure: as §1, §2, §9, §3, §4, §5, §6, §7, §10

Experiment [4] relates to Circulating Tumour Cells (CTCs, EpCam+CD45−) from a patient with stage II synovial sarcoma. The experiment can be described thus: Drug response score assay (RealTime-Glo MT / CellTox Green, PCL scaffold) on CTCs from blood, Example 1. Set-up: key to Drug response score, conc. 1 / Drug response score, conc. 2 / Drug response score, conc. 3 / Drug response score, conc. 4: normalized drug response metric per Gupta et al. 2020. On the procedure:
as §1, §2, §3, §4, §5, §6, §7, §8
Blood samples from a patient with stage II synovial sarcoma (suspected spindle cell tumour) were received and tested using a 6 drug panel.
Chemotherapeutic agents were tested as in Table 3.

The test system of experiment [5] is Circulating Tumour Cells (CTCs) from a patient with head and neck cancer (squamous cell carcinoma). Nature of the experiment: Drug response score assay on CTCs from blood, Example 6. The settings on record: for Drug response score, conc. 1: conc. 1: Ifos 0.125 μg/ml, Gemcit 2 μg/ml, Doxo 10 ng/ml, Etop 1 μg/ml, Metho 0.5 μg/ml, Capecit 200 μg/ml, Vinor 20 μg/ml; for Drug response score, conc. 1 / Drug response score, conc. 2 / Drug response score, conc. 3 / Drug response score, conc. 4: CTCs, t96h; for Drug response score, conc. 2: conc. 2: Ifos 0.25 μg/ml, Gemcit 10 μg/ml, Doxo 30 ng/ml, Etop 4 μg/ml, Metho 1 μg/ml, Capecit 300 μg/ml, Vinor 40 μg/ml; for Drug response score, conc. 3: conc. 3: Ifos 5 μg/ml, Gemcit 20 μg/ml, Doxo 90 ng/ml, Etop 20 μg/ml, Metho 2 μg/ml, Capecit 400 μg/ml, Vinor 80 μg/ml; for Drug response score, conc. 4: conc. 4: Ifos 10 μg/ml, Gemcit 40 μg/ml, Doxo 270 ng/ml, Etop 100 μg/ml, Metho 4 μg/ml, Capecit 600 μg/ml, Vinor 200 μg/ml; for effectiveness on Circulating Tumour Cells under laboratory conditions / Drug sensitivity as calculated by the assay (interpretation of Drug Response Scores): head and neck cancer CTCs; for Drug sensitivity as calculated by the assay (interpretation of Drug Response Scores): Table 20. On the procedure: as §1, §2, §3, §4, §5, §6, §7, §8
Blood samples from a patient with head and neck cancer (squamous cell carcinoma) were received on 11 Mar. 2022 and tested using a 7 drug panel.

For experiment [6], the system named is Circulating Tumour Cells (CTCs) from a patient with colon cancer (sigmoid colon cancer). Nature of the experiment: Drug response score assay on CTCs from blood, Example 8. Also on record: key to Drug response score, conc. 1 / Drug response score, conc. 2 / Drug response score, conc. 3 / Drug response score, conc. 4: normalized drug response metric (Gupta et al. 2020). In a few lines: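 EpCAM+ CTCs isolated from patient blood by CD45 depletion then EpCAM bead selection, and imaged with RealTime-Glo MT viability and CellTox Green cytotoxicity reagents. Agents added, cells cultured at 37° C, 5% CO2 for 48 h, re-dosed, then a further 48 h. Score calculated by normalized drug response metric from t0 and t96h readouts against blank-well controls.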

Regarding `N.N.[Cl][Pt][Cl]` [Cisplatin], in experiment [1] (Cisplatin 2 μg/ml, CTCs, t96h), the “Drug response score, conc. 1” value is given as 2.719. Further, the “Drug response score, conc. 2” value in experiment [1] (Cisplatin 4 μg/ml, CTCs, t96h) is listed as 2.874. Moreover, the “Drug response score, conc. 3” value in experiment [1] (Cisplatin 10 μg/ml, CTCs, t96h) turned out to be 3.012. In addition, in experiment [1] (Cisplatin 20 μg/ml, CTCs, t96h), the “Drug response score, conc. 4” value was 3.259. Also, in experiment [1] (colon cancer CTCs), the “effectiveness on Circulating Tumour Cells under laboratory conditions” value is on record as “not effective”. The “Drug sensitivity as calculated by the assay (interpretation of Drug Response Scores)” value (shortened to “Drug sensitivity as calculated”) in experiment [1] (colon cancer CTCs, Table 8) is given as “Resistant”.
In the case of `Nc1ccn([C@@H]2O[C@H](CO)[C@@H](O)C2(F)F)c(=O)n1` [Gemcitabine], the “Drug response score, conc. 1” value in experiment [2] (conc. 1: Pembr 20 μg/ml (CTCs + CD45+ cells), Docetax 0.02 μg/ml, Gemcit 2 μg/ml, Topo 5 μg/ml, Etop 1 μg/ml, Eribul 5 μg/ml (CTCs), t96h) is listed as −0.1637; in experiment [4] (conc. 1: Doxo 10 ng/ml, Ifos 0.125 μg/ml, Gemcit 2 μg/ml, Doce 0.02 μg/ml, Carbo 2 μg/ml, Dacarb 1.5 μg/ml, CTCs, t96h, re-dosed at 48 h), 0.9382; in experiment [5] it was 0.9091. For the same compound, the “Drug response score, conc. 2” value in experiment [2] (conc. 2: Pembr 40 μg/ml (CTCs + CD45+ cells), Docetax 0.2 μg/ml, Gemcit 10 μg/ml, Topo 10 μg/ml, Etop 4 μg/ml, Eribul 10 μg/ml (CTCs), t96h) amounted to 0.0725; in experiment [4] (conc. 2: Doxo 30 ng/ml, Ifos 0.25 μg/ml, Gemcit 10 μg/ml, Doce 0.2 μg/ml, Carbo 5 μg/ml, Dacarb 3 μg/ml, CTCs, t96h), 0.4695; in experiment [5], 0.8443. Further, the “Drug response score, conc. 3” value is listed as −0.3154 in experiment [2] (conc. 3: Pembr 100 μg/ml (CTCs + CD45+ cells), Docetax 2 μg/ml, Gemcit 20 μg/ml, Topo 50 μg/ml, Etop 20 μg/ml, Eribul 20 μg/ml (CTCs), t96h); 0.5149 in experiment [4] (conc. 3: Doxo 90 ng/ml, Ifos 5 μg/ml, Gemcit 20 μg/ml, Doce 2 μg/ml, Carbo 10 μg/ml, Dacarb 6 μg/ml, CTCs, t96h); 0.6925 in experiment [5]. Also, the “Drug response score, conc. 4” value was −0.0871 in experiment [2] (conc. 4: Pembr 160 μg/ml (CTCs + CD45+ cells), Docetax 10 μg/ml, Gemcit 40 μg/ml, Topo 100 μg/ml, Etop 100 μg/ml, Eribul 40 μg/ml (CTCs), t96h); 0.4075 in experiment [4] (conc. 4: Doxo 270 ng/ml, Ifos 10 μg/ml, Gemcit 40 μg/ml, Doce 10 μg/ml, Carbo 20 μg/ml, Dacarb 12 μg/ml, CTCs, t96h); 0.3157 in experiment [5]. The “effectiveness on Circulating Tumour Cells under laboratory conditions” value in experiment [2] (renal cancer CTCs) is given as “Sensitive S++”; in experiment [5], “Sensitive S+”. For the same compound, the “Drug sensitivity as calculated” value in experiment [2] (renal cancer CTCs, Table 23) is recorded as “Sensitive (S++)”; in experiment [3], “S++”; in experiment [4] (synovial sarcoma CTCs, Table 5) it was “Sensitive (S+)”; in experiment [5] it was “Sensitive (S+)”. Further, the “effectiveness on Circulating Tumour Cells (CTCs) under laboratory conditions” value in experiment [3] is listed as “marginally more effective than other agents”.
As to `CCC1=C[C@@H]2CN(C1)Cc1c([nH]c3ccccc13)[C@@](C(=O)OC)(c1cc3c(cc1OC)N(C)[C@H]1[C@@](O)(C(=O)OC)[C@H](OC(C)=O)[C@]4(CC)C=CCN5CC[C@]31[C@@H]54)C2` [Vinorelbine], the “Drug response score, conc. 1” value came to 0.0721 in experiment [6] (conc. 1 of each drug as in Table 24, CTCs, t96h) and 0.6102 in experiment [5]. Also, the “Drug response score, conc. 2” value in experiment [6] (conc. 2 of each drug as in Table 24, CTCs, t96h) is −0.6648; in experiment [5], 0.9691. Besides, the “Drug response score, conc. 3” value stood at 0.2340 in experiment [6] (conc. 3 of each drug as in Table 24, CTCs, t96h) and 0.4733 in experiment [5]. The “Drug response score, conc. 4” value in experiment [6] (conc. 4 of each drug as in Table 24, CTCs, t96h) is recorded as −0.5738; in experiment [5] it was 0.8073. Besides, the “Drug sensitivity as calculated” value in experiment [6] (sigmoid colon cancer CTCs, Table 26) was “Sensitive (S+)”; in experiment [3] it was “S++”; in experiment [5] it was “Sensitive (S+)”. The “effectiveness on Circulating Tumour Cells under laboratory conditions” value in experiment [5] is given as “Sensitive S+”.
